For the experiment, the target named is T1, KCNT1 (KNa1.1, Slack) (Homo sapiens, UniProt Q5JUK3).
T1 construct: expressed in transfected cells; host or cells: HEK-TREX (tetracycline-inducible)
T1 sequence (Q5JUK3 1-1230): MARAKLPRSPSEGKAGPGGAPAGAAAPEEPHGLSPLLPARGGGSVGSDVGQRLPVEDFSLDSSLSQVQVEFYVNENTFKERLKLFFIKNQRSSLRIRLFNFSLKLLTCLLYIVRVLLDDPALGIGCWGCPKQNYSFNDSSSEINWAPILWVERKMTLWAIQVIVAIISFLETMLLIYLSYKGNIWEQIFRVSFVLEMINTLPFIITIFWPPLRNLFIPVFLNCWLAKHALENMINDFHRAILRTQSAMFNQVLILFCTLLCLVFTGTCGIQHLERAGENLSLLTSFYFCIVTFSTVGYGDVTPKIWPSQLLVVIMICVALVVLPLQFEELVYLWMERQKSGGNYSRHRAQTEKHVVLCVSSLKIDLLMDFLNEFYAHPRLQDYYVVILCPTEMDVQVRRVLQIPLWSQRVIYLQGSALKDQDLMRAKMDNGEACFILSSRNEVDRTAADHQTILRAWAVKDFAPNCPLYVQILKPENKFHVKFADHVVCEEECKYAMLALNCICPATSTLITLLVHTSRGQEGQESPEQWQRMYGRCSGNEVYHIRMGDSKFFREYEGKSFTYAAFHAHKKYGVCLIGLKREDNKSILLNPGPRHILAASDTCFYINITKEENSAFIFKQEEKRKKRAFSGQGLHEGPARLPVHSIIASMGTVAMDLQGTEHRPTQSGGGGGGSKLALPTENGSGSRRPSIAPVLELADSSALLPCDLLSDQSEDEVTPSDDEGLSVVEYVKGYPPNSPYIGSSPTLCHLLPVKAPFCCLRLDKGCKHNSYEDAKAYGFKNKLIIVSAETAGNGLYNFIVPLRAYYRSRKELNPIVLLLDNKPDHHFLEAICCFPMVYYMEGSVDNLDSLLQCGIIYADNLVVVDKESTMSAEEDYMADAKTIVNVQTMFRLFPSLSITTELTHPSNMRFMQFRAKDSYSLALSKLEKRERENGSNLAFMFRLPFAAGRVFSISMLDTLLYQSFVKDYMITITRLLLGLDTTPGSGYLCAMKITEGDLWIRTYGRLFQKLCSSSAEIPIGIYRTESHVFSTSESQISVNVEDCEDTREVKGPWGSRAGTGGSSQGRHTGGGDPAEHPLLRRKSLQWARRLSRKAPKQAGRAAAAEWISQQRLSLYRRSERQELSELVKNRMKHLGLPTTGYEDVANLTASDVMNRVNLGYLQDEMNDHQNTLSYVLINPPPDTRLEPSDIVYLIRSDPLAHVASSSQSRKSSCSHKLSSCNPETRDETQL
The experiment in a line: KCNT1 patch clamp assay (SyncroPatch 384PE, HEK-TREX cell line). The class given is cell-based. The conditions noted are these: tetracycline inducible HEK-TREX cell line, perforated patch, step to 0 mV, room temperature; read-out: KCNT1-WT IC50. As to the method:
Currents were recorded using the SyncroPatch 384PE automated, patch clamp system. Pulse generation and data collection were performed with PatchController384 V1.3.0 and DataController384 V1.2.1 (Nanion Technologies). The access resistance and apparent membrane capacitance were estimated using built-in protocols. Current were recorded in perforated patch mode (10 μM escin) from a population of cells. The cells were lifted, triturated, and resuspended at 800,000 cells/ml. The cells were allowed to recover in the cell hotel prior to experimentation. Currents were recorded at room temperature. […] The extracellular solution was used as the wash, reference and compound delivery solution. […] Escin is made at a 5 mM stock in water, aliquoted, and stored at −20° C. The compound plate was created at 2× concentrated in the extracellular solution. The compound was diluted to 1:2 when added to the recording well. The amount of DMSO in the extracellular solution was held constant at the level used for the highest tested concentration. A holding potential of −80 mV with a 100 ms step to 0 mV was used. […] The average mean current from 3 sweeps was calculated and the % inhibition of each compound was calculated. The % Inhibition as a function of the compound concentration was fit with a Hill equation to derive IC50, slope, min and max parameters.
(In general: The patch-clamp technique gives a direct electrical read-out from membranes.)

SMILES strings stand for the structures. Some results are limits rather than exact numbers.

Our source for the IC50 values is patent US20240043415A1, “KCNT1 INHIBITORS AND METHODS OF USE” (Praxis Precision Medicines, Inc., priority 2020, published 2024).

The term IC50 denotes the concentration that gives 50% inhibition. Consider `C[C@H](NC(=O)c1cc(C(F)(F)F)nn1C)c1noc(-c2ccnc(C3CC3)c2)n1` [Compound 2a, (S)-N-(1-(5-(2-cyclopropylpyridin-4-yl)-1,2,4-oxadiazol-3-yl)ethyl)-1-methyl-3-(trifluoromethyl)-1H-pyrazole-5-carboxamide], for which the IC50 is at most 1 µM.
